Experimental data reported in patent US10413610B2, “Liquid formulation” (Luoda Pharma Pty Ltd, priority 2012, dated 2019).

Assays:
[1] = set-up: species or system dogs; conditions: dog, in vivo
Excerpt: The results for both IVPs 3 and 4 are consistent with this value.

[2] = cited from earlier work

published AUC for benazeprilat scaled to a dose of 0.25 mg/kg [1]	Structure (SMILES)	effect of addition of HPβCD on aqueous solubility of pimobendan ([2]; pH between 3 and 5)	solubility at pH 7 ([2]; water, pH 7)	volume of water in which 1 g of pimobendan dissolves ([2]; water)
114.9 ng/h/mL	CCOC(=O)[C@H](CCc1ccccc1)N[C@H]1CCc2ccccc2N(CC(=O)O)C1=O [benazepril, Benazepril]	–	–	–
–	COc1ccc(-c2nc3ccc(C4=NNC(=O)CC4C)cc3[nH]2)cc1 (racemic) [pimobendan, (RS)-6-[2-(4-methoxyphenyl)-1H-benzimidazol-5-yl]-5-methyl-4,5-dihydropyridazin-3(2H)-one]	does not effectively increase the aqueous solubility	0.1 mg per 100 mL	10,000 mL
